The test in a line: Aerosol treatment for dyspnea, FEV1/FVC ratio. The test is classed as in vivo. To be noted: aerosol formulation, 50 μg every 8 hr continuously for dyspnea; after a week of treatment. How it is done: Ten minutes and 36 hours later, the mice are moved to whole body plethysmograph chambers. Bronchoconstriction is induced in mice by administration of an 80 mg/ml methacholine (MC) aerosol into the plethysmograph chambers for 5 minutes. The mice are allowed to inhale an aerosol containing 80 mg/ml methacholine following inhalation treatment with DPBS vehicle (Dulbecco's Phosphate Buffered Saline), or 80 mg/ml methacholine following inhalation treatment with 1.29 mg/ml of the title compound of example I. The average enhanced pause (Penh, lung resistance), corresponding to airflow resistance, is determined and statistically analyzed using Kruskal-Wallis one way ANOVA. In order to determine the baseline, saline aerosol (without methacholine) is also separately administered to the mice, treated with the compound of example I in an aerosol formulation, 50 μg every 8 hr continuously for dyspnea. After a week of treatment, the FEV1/FVC ratio improves to about 65%.

For `C[N+]1(Cc2cccc(N)n2)CCC(NC(=O)[C@](O)(c2ccccc2)[C@@H]2CCC(F)(F)C2)CC1.[I-]` (stereo partly drawn) [Example I, (2R)-N-[1-(6-aminopyridin-2-ylmethyl)1-methylpiperdin-4-yl]-2-[(1R)-3,3,-difluorocyclopentyl]-2-hydroxy-2-phenylacetamide iodide], the FEV1/FVC ratio entry was “about 65%”.
